Drawing on patent US7998978B2 (Pfizer Inc., priority 2006, dated 2011), this text covers inhibition and Ki for 15 molecules.

T1 sequence (P45983 1-364): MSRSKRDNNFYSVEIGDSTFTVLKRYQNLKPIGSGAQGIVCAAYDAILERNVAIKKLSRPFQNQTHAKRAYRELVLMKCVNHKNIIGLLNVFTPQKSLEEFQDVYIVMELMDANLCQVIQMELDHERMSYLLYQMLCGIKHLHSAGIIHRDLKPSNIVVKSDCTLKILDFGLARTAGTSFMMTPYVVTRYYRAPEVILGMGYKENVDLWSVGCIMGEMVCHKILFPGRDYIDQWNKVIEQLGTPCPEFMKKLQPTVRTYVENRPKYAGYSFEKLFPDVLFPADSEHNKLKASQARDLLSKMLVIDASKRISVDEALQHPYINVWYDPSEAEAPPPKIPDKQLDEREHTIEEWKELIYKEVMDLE

The first test concerns the target T1, JNK1α1 (Homo sapiens, UniProt P45983).
T1 construct: catalytic domain containing amino acids 1-364 and N-terminal hexahistidine tag; hexahistidine (His6) (N); made in house; host or cells: E. coli BL21 (DE3)
Nature of the test: Coupled spectrophotometric (PK/LDH) JNK1α1 assay: % inhibition and Ki determination. To be noted: @1 uM; read-out: % Inhibition JNK-1. The test is classed as biochemical. Summed up:
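Initial rates were taken from the absorbance decrease at 340 nm at 30° C. Ki was fitted with a tight-binding model over 11 concentrations (top 100 μM); single-point inhibition was tested at 1 or 10 μM.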
Regarding `CN1CCCC(COc2ccc3cnc(N[C@H]4CC[C@H](O)CC4)nc3c2)C1` (stereo partly drawn) [Example 270, trans-4-({7-[(1-methylpiperidin-3-yl)methoxy]quinazolin-2-yl}amino)cyclohexanol], the inhibition at 1 µM was found to be 40%.

Consider `O=C(NC1CCCOC1)c1cccc2cnc(N[C@H]3CC[C@H](O)CC3)nc12` (stereo partly drawn) [Example 488, 2-[(trans-4-hydroxycyclohexyl)amino]-N-(tetrahydro-2H-pyran-3-yl)quinazoline-8-carboxamide], for which the inhibition at 1 µM worked out at 40%.

For `Cc1ccn(CCNC(=O)c2cccc3cnc(N[C@H]4CC[C@H](O)CC4)nc23)n1` [Example 498, 2-[(trans-4-hydroxycyclohexyl)amino]-N-[2-(3-methyl-1H-pyrazol-1-yl)ethyl]quinazoline-8-carboxamide], the inhibition at 1 µM came to 11%. The same measure, in the same setting: in the case of `O[C@H]1CC[C@H](Nc2ncc3ccc(OC4CCCN(Cc5ccccn5)C4)cc3n2)CC1` (stereo partly drawn) [Example 286, trans-4-[(7-{[1-(pyridin-2-ylmethyl)piperidin-3-yl]oxy}quinazolin-2-yl)amino]cyclohexanol] it was 42%; in that of `O[C@H]1CC[C@H](Nc2ncc3cccc(OCCN4CCCCC4)c3n2)CC1` [Example 255, trans-4-{[8-(2-piperidin-1-ylethoxy)quinazolin-2-yl]amino}cyclohexanol], 12%. Same read-out and setting: in the case of `O[C@H]1CC[C@H](Nc2ncc3ccc(OCc4nc5ccccc5[nH]4)cc3n2)CC1` [Example 288, trans-4-{[7-(1H-benzimidazol-2-ylmethoxy)quinazolin-2-yl]amino}cyclohexanol] it was 39%.

The test is the same for the next values; noted with them: @10 uM; read-out: % Inhibition JNK-1.
As to `CC(C)(C)N1CC(CNC(=O)c2cccc3cnc(N[C@H]4CC[C@H](O)CC4)nc23)CC1=O` (stereo partly drawn) [Example 503, N-[(1-tert-butyl-5-oxopyrrolidin-3-yl)methyl]-2-[(trans-4-hydroxycyclohexyl)amino]quinazoline-8-carboxamide], the inhibition at 10 µM came to 54%. As for `COc1ccc(CNc2cc3cc(-c4cn[nH]c4)ccc3cn2)cn1` [Example 231, N-[(6-methoxypyridin-3-yl)methyl]-6-(1H-pyrazol-4-yl)isoquinolin-3-amine], the inhibition at 10 µM was determined as 43%.

The same test, now with this note: JNK-1.
For `CC1(CNC(=O)c2cccc3cnc(N[C@H]4CC[C@H](O)CC4)nc23)COC1` [Example 453], the affinity, expressed as Ki, was 170 nM. Still for that read-out and setting: next, `CS(=O)(=O)N[C@H]1CC[C@H](Nc2ncc3cccc(OC4CCOC4)c3n2)CC1` (stereo partly drawn) [Example 187, N-(trans-4-{[8-(tetrahydrofuran-3-yloxy)quinazolin-2-yl]amino}cyclohexyl)methanesulfonamide]: 414 nM; `O=C(Cc1ccccc1)Nc1cc2cc(-c3cn[nH]c3)ccc2cn1` [Example 6, 2-phenyl-N-[6-(1H-pyrazol-4-yl)isoquinolin-3-yl]acetamide]: 39 nM. With `CC[C@H](C)[C@@H](CO)NC(=O)c1ccc2cnc(N[C@H]3CC[C@H](O)CC3)nc2c1` [Example 378, 2-((trans-4-hydroxycyclohexyl)amino]-N-[(1S,2S)-1-(hydroxymethyl)-2-methylbutyl]quinazoline-7-carboxamide], the Ki is 160 nM.

Turning to `O=C(NCCN1CCCC1=O)c1ccc2cnc(N[C@H]3CC[C@H](O)CC3)nc2c1` [Example 367, 2-[(trans-4-hydroxycyclohexyl)amino]-N-[2-(2-oxopyrrolidin-1-yl)ethyl]quinazoline-7-carboxamide], the Ki stood at 2180 nM.

Regarding `O[C@H]1CC[C@H](Nc2ncc3cccc(OCC4CCCCO4)c3n2)CC1` (stereo partly drawn) [Example 243, trans-4-{[8-(tetrahydro-2H-pyran-2-ylmethoxy)quinazolin-2-yl]amino}cyclohexanol], the inhibition constant (Ki) stood at 233 nM.

With `O=C(NC1CCS(=O)(=O)C1)c1ccc2cnc(N[C@H]3CC[C@H](O)CC3)nc2c1` (stereo partly drawn) [Example 60, N-(1,1-dioxidotetrahydro-3-thienyl)-2-[(trans-4-hydroxycyclohexyl)amino]quinazoline-7-carboxamide], the affinity corresponds to a Ki of 157 nM.
